Measurements reported in patent publication US10638754B2, “Methods of attracting Drosophila suzukii using acetoin blend” (The United States of America, as Represented by the …, priority 2016, dated 2020).

Key:
D. suzukii [1] = test: preliminary field test with baited traps, 2014; format: in vivo, Drosophila suzukii; details: for Mean ± SD (SWD captured): Oct. 17 to Oct. 24, 2014, 3 replicates; for Total no. SWD captured: Oct. 17 to Oct. 24, 2014, Beltsville, 3 replicates
Experimental: (§1) Field test: Commercially-available Victor® yellowjacket and flying insect traps (Great Lakes IPM Inc., Vestaburg, Mich.) filled with ˜300 mL of tap water containing a surfactant (Seventh Generation™ natural dish liquid—free and clear, Shoppers Food and Pharmacy, College Park, Md., 4 mL/gallon) as a drowning solution were used in all field tests at the Beltsville Agricultural Research Center-West, Beltsville, Md. (10300 Baltimore Ave., Beltsville, Md.) and at the blueberry field at Butler's Orchard (22222 Davis Mill Rd, Germantown, Md.). Unless otherwise indicated, pure chemical (individual or blend, 1 mL) was loaded onto a cotton ball held within a polypropylene flex micro-centrifuge tube (1.5 mL Eppendorf micro-centrifuge tube, VWR International, Radnor, Pa.) and the lid of the tube was then closed. Tubes filled only with a cotton ball were used as blank controls. The micro-centrifuge tube lure was opened and the lid was snapped into one of four holes on the cap of the Victor® trap, leaving the three remaining holes to serve as entrances for attracted insects. At the Beltsville Agricultural Research Center, traps were hung from the branches of trees on the edge of a small woodlot in blocks consisting of 3-5 treatments and 1 blank control with the traps spaced approximately 5 m apart within a group. The treatments were randomly arranged at different positions within the block and blocks were separated by 10-20 m. At the blueberry field in Butler's Orchard, traps were hung from the branches of blueberry bushes, deployed in blocks consisting of 3 treatments with the traps spaced approximately 5 m apart in a group. The traps were randomly arranged at different positions within the block and blocks were separated by 10-20 m.
The preliminary field tests were conducted at the Beltsville Agricultural Research Center during Oct. […] In 2015 and 2016, three additional treatments were formulated: treatment 14 ((2-components, including acetoin (AT) and ethyl octanoate (EO) in 1:1 ratio), treatment 16 (single-component, acetoin (AT)), and treatment 17 (single-component, ethyl octanoate (EO)). The rest of the compounds, including ethanol (EtOH) (10 mL) and acetic acid (AA) (1 mL), were added into drowning water and evaluated as individual attractant or synergistic attractive agent whenever needed. In 2016, ACV (300 mL, Essential Everyday®, 5% acidity, Shoppers Food and Pharmacy, College Park, Md.) and a commercially-available Scentry® SWD lure (Great Lakes IPM Inc., Vestaburg, Mich.) were used as standard lures for SWD attraction activity comparison. […] In addition, ethyl acetate (EA) (5 mL) and phenethyl alcohol (PE) (1 mL) were added to the drowning solution and evaluated as individual attractants or synergistic attractive agents. […] Flies were counted in the laboratory.

D. suzukii [2] = test: laboratory two-choice bioassay (treatment vs. blank control); format: in vivo, Drosophila suzukii; details: for attraction against blank control: 20 μL standard dose, FIG. 3D, 3E; for D. suzukii that made choice: 20 μL, FIG. 3E; for attraction compared to a blank control: 50 μL total volume, N=15, FIG. 3C
Experimental: Laboratory behavioral bioassay: To identify the key components for D. suzukii attraction from the apple juice 7-components blend, a two-choice laboratory bioassay (testing chemical or chemical blend vs. blank control) was used and different combinations of 7-components were evaluated. A complete test apparatus consisted of a plastic cup containing two trap tubes with two lure vials, and a water wick (FIG. 2). The plastic cups were clear, cylindrical polypropylene food containers (946 mL, diameter 114 mm, height 127 mm, Paper Mart, CA). […] The polystyrene trap tubes (95 mm×28.5 mm, same as those used in insect rearing) were labeled “T” for treatment and “B” for blank control, respectively, and were then given the appropriate lure. Lures were either tested chemical/chemical blends (unless otherwise indicated, 20 μL pure individual or blend) loaded onto a small cotton ball held within a small polyethylene lure vial (26 mm×8 mm×1.5 mm thickness, Just Plastic Ltd., Norwich, UK) or blank controls of plain cotton or cotton with solvent (in dose response trials) held in the same type of small lure vial. Each lure vial (open lid) was placed vertically within its trap tube and then the top of each trap tube was sealed with Parafilm® (Pechiney plastics packaging Inc. Menasha, Wis.) leaving only a 4 mm diameter hole in the center to provide an entrance for attracted flies. Each pair of loaded trap tubes were then placed vertically on opposite sides of the test cups with the entrance holes facing upwards. A water wick consisting of a glass scintillation vial (20 mL, VWR, PA) filled with deionized water and plugged with a cotton ball was laid on the bottom of the plastic cup to serve as a water source for the flies during the experiment (FIG. 2). Flies were immobilized using a CO2 stream and 10 were transferred into each testing apparatus. The fully-assembled test apparatus cups were then covered with their ventilated lids. All assays were conducted in a fume hood (120-cm-length×60-cm-width×70-cm-height) using new lures and young flies (2-8 days post-eclosion) under 25° C., 60% RH, and a 16:8 hour (L:D) photoperiod. Mixed-sex D. suzukii were used in bioassays unless stated otherwise, and all flies within and outside treatment and control trap tubes were counted and sexed after 48 hours.
All statistical comparisons were considered for significance at α=0.05.

D. suzukii [3] = test: field tests in 2015, baited traps; format: in vivo, Drosophila suzukii; details: for attraction of D. suzukii in the field: traps, Beltsville, late fall 2015, FIG. 4-6
Experimental: as §1
The preliminary field tests were conducted at the Beltsville Agricultural Research Center during Oct. 17 to 24, 2014, using six different lures: (1) apple juice blend (treatment 1, 7-components based on apple juice fermentation products (FIG. 1), including isobutanol (IB):2-methyl butanol (2MB):3-methyl butanol (3MB):ethyl hexanoate (EH):acetoin (AT):ethyl octanoate (EO):methyl benzoate (MB) in natural ratios of 4:7:7:0.3:1:0.3:2) (v/v)), (2) raspberry blend (11-components blend, including butyl acetate:hexanal:2-heptanone:3-methyl-butanol:trans-2-hexenal:3-methyl-2-butyl acetate:2-heptanol:hexanol:cis-3-hexenol:6-methyl-5-hepten-2-ol:linalool; obtained from Sigma-Aldrich; mixed into an 11-component blend in natural ratios of 1:36:3:5:10:2:7:8:9:2:8 (v/v), respectively))(Abraham, J. et al., Environ. Entomol., 44 (2): 356-367 (2015)), (3) single component (2-methyl butanol (2MB)), (4) 3-methyl butanol (3MB), (5) binary components blend ((2MB+3MB in 1:1 ratio)), and (6) blank control. In 2015 and 2016, three additional treatments were formulated: treatment 14 ((2-components, including acetoin (AT) and ethyl octanoate (EO) in 1:1 ratio), treatment 16 (single-component, acetoin (AT)), and treatment 17 (single-component, ethyl octanoate (EO)). The rest of the compounds, including ethanol (EtOH) (10 mL) and acetic acid (AA) (1 mL), were added into drowning water and evaluated as individual attractant or synergistic attractive agent whenever needed. In 2016, ACV (300 mL, Essential Everyday®, 5% acidity, Shoppers Food and Pharmacy, College Park, Md.) and a commercially-available Scentry® SWD lure (Great Lakes IPM Inc., Vestaburg, Mich.) were used as standard lures for SWD attraction activity comparison. The amount of AA in the drowning solution in each trap was increased from 1 mL to 15 mL to reach the same acidity (5%) with ACV. In addition, ethyl acetate (EA) (5 mL) and phenethyl alcohol (PE) (1 mL) were added to the drowning solution and evaluated as individual attractants or synergistic attractive agents. Lure dispenser tubes and trap drowning solutions with captured insects were collected and replaced every week unless otherwise indicated. Flies were counted in the laboratory.

[4] = lure release rate from micro-centrifuge tube dispensers; format: physicochemical; details: for first order rate constant k of desorption: 1 mL loading, micro-centrifuge tube dispenser, fume hood
Experimental: Lure Release Rate: Release rates of three different kinds of attractants, including acetoin (AT), ethyl octanoate (EO), and a blend of AT and EO (ratio=1:1), were measured under controlled conditions in a laboratory fume hood. Each attractant (1 mL) was loaded onto cotton balls held in open micro-centrifuge tubes (1.5 mL, VWR International, Radnor, Pa.). Fifteen of these micro-centrifuge tubes (five of each tested attractant) were suspended on hooks in a fume hood (temperature: 20-25° C., face velocity: 129 feet/min). Each tube was weighed every 24-h or 72-h (weekend) and the amount of attractant residue was calculated and recorded over a period of two weeks.

D. suzukii [5] = test: field tests in 2016, baited traps; format: in vivo, Drosophila suzukii; details: Nov.-Dec. 2016, FIG. 7-11
Experimental: (§2) Field test: Commercially-available Victor® yellowjacket and flying insect traps (Great Lakes IPM Inc., Vestaburg, Mich.) filled with ˜300 mL of tap water containing a surfactant (Seventh Generation™ natural dish liquid—free and clear, Shoppers Food and Pharmacy, College Park, Md., 4 mL/gallon) as a drowning solution were used in all field tests at the Beltsville Agricultural Research Center-West, Beltsville, Md. (10300 Baltimore Ave., Beltsville, Md.) and at the blueberry field at Butler's Orchard (22222 Davis Mill Rd, Germantown, Md.). […]
(§3) The preliminary field tests were conducted at the Beltsville Agricultural Research Center during Oct. […] In 2015 and 2016, three additional treatments were formulated: treatment 14 ((2-components, including acetoin (AT) and ethyl octanoate (EO) in 1:1 ratio), treatment 16 (single-component, acetoin (AT)), and treatment 17 (single-component, ethyl octanoate (EO)). The rest of the compounds, including ethanol (EtOH) (10 mL) and acetic acid (AA) (1 mL), were added into drowning water and evaluated as individual attractant or synergistic attractive agent whenever needed. In 2016, ACV (300 mL, Essential Everyday®, 5% acidity, Shoppers Food and Pharmacy, College Park, Md.) and a commercially-available Scentry® SWD lure (Great Lakes IPM Inc., Vestaburg, Mich.) were used as standard lures for SWD attraction activity comparison. […]

other D. spp. = test: field tests in 2015, baited traps, non-target catch; format: in vivo; details: EtOH combined with the AT+AA blend; field 2015; FIG. 4
Experimental: as §2, §3

SMILES: CCC(C)CO (stereo not shown) [2MB, 2-methyl-1-butanol]
- Mean ± SD (SWD captured) (D. suzukii [1]): 1.00 ± 1.00c
- Total no. SWD captured (D. suzukii [1]): 3
- attraction against blank control (D. suzukii [2]; 48 h): repellent effect
- D. suzukii that made choice (D. suzukii [2]; 48 h): 37%

SMILES: CC(C)CCO [3MB, 3-methyl-1-butanol]
- Mean ± SD (SWD captured) (D. suzukii [1]): 3.00 ± 1.00c
- Total no. SWD captured (D. suzukii [1]): 9

SMILES: CC(=O)O [AA, acetic acid]
- attraction compared to a blank control (D. suzukii [2]): not attractive
- attraction of D. suzukii in the field (D. suzukii [3]): inactive by itself

SMILES: CC(=O)C(C)O (stereo not shown) [AT, 3-hydroxy-2-butanone]
- attraction against blank control (D. suzukii [2]; 48 h): elicited attraction
- attraction against blank control (D. suzukii [2]; 48 h, listed as Acetoin): moderate activity
- attraction of D. suzukii in the field (D. suzukii [3]): significantly more attractive than EO
- time to release 50% (half-life of dispenser, t1/2=0.693/k) [4]: ~48 h
- first order rate constant k of desorption [4]: 0.316 day⁻¹

SMILES: CCOC(C)=O [EA, ethyl acetate]
- attraction of D. suzukii in the field (D. suzukii [5]): not attractive in the field

SMILES: CCCCCCCC(=O)OCC [EO, ethyl octanoate]
- attraction against blank control (D. suzukii [2]; 48 h): most attractive component
- D. suzukii that made choice (D. suzukii [2]; 48 h): 96%
- Mean ± SD (D. suzukii captured in tubes) (D. suzukii [2]; 50 μL loading, 5 replicates of 10 flies, 48 h): 9.80 ± 0.45a
- Total no. captured (D. suzukii [2]; 50 μL loading, 5 replicates, 50 flies tested in total, 48 h): 49
- effectiveness compared with other treatments (D. suzukii [2]; 50 μL loading, N=5): captured significantly more D. suzukii than trap vials baited with treatment 1
- attraction against blank control, dose response (D. suzukii [2]; all doses from 0.3 μL to 300 μL, FIG. 3F): Significantly attractive activities
- synergistic effect when combined with AA (D. suzukii [3]; field 2015): No synergistic effect
- attraction of D. suzukii in the field (D. suzukii [3]): did not show any activity at all
- first order rate constant k of desorption [4]: 0.049 day⁻¹

SMILES: CCO [EtOH, ethanol, reference compound]
- attraction compared to a blank control (D. suzukii [2]): significantly more attractive
- SWD specificity of the blend (D. suzukii [3]; ethanol added to blend of AT and AA): ~30%
- attraction of D. suzukii in the field (D. suzukii [3]): did not show significant activity
- trap catch of non-target Drosophila (other D. spp.): attracted significantly more non-target Drosophila

SMILES: OCCc1ccccc1 [PE, phenethyl alcohol]
- attraction of D. suzukii in the field (D. suzukii [5]): did not show any activity
